4 compounds from ChEMBL document CHEMBL4742399, “New compounds for use as a therapeutically active substance and in particular for use in the treatment of tumors” (2019) can be followed below.

Activity calls are given as the source filed them. The calls are words filed in the database; no cut-off is given here.

For assay [1], the target named is T1, Dual specificity tyrosine-phosphorylation-regulated kinase 1B (Homo sapiens, UniProt Q9Y463). Briefly: Inhibition of GST-tagged DYRK1B (unknown origin) incubated for 30 mins using DYRKtide by ADP-Glo assay. Background: ADP-Glo first removes unused ATP, then detects ADP through luciferase.
Target sequence in this assay (Q9Y463 whole entry): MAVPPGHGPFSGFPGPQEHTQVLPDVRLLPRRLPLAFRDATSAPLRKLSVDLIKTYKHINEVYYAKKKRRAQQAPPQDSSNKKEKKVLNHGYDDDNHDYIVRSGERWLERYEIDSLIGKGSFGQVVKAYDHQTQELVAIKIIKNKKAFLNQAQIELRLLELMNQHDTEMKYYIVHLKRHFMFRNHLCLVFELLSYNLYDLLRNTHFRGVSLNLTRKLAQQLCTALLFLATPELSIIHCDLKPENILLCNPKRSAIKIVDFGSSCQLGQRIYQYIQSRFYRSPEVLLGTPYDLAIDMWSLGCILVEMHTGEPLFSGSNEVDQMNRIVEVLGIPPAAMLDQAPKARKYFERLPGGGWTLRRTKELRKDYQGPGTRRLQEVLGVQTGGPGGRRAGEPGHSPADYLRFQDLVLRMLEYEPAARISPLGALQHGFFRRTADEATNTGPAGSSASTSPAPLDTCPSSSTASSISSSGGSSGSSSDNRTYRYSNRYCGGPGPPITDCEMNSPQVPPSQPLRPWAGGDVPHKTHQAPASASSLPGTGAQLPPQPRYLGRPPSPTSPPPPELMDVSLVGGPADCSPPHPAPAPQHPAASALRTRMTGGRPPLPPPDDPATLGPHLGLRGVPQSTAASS
Assay [2] deals with HT-29. Briefly: Cytotoxicity against human HT-29 multicellular tumor spheroid cells at 0.15 to 20 uM incubated for 48 hrs by Hoechst and SYTOX staining based assay. In kind it is functional, cell-based. As to conditions: dose 0.15-20 µM.
Assay [3] deals with HT-29. Briefly: Cytotoxicity against human HT-29 multicellular tumor spheroid cells at 5 uM incubated for 48 hrs under hypoxic conditions by Hoechst and SYTOX staining based assay. The class given is functional, cell-based.
The target in assay [4] is T1, Dual specificity tyrosine-phosphorylation-regulated kinase 1B. Description: Inhibition of DYRK1B un human HT-29 cells assessed as reduction p27 Ser10 phosphorylation at 2.5 to 10 uM. The class given is cell-based. As to conditions: dose 2.5-10 µM.
Target sequence in this assay (Q9Y463 whole entry, looked up): as the sequence (Q9Y463 whole entry) above
For assay [5], the system named is HT-29. Description: Cytotoxicity against human HT-29 multicellular tumor spheroid cells at 5 uM incubated for 48 hrs by Hoechst and SYTOX staining based assay. The class given is functional, cell-based.
The target in assay [6] is T1, Dual specificity tyrosine-phosphorylation-regulated kinase 1B. Briefly: Inhibition of GST-tagged DYRK1B (unknown origin) assessed as reduction p27 Ser10 phosphorylation at 0.1 to 10 uM. As to conditions: dose 0.1-10 µM.
Target sequence in this assay (Q9Y463 whole entry, looked up): as the sequence (Q9Y463 whole entry) above

For orientation: IC50 means the concentration needed to halve the response being measured. A higher IC50 goes with weaker potency. For the compound `Fc1ccccc1-n1cc(-c2ccnc(NC3CCOCC3)n2)cn1`, 2 µM corresponded to half-maximal inhibition in assay [1] (IC50).
Same read-out and setting: the result for `COc1ccccc1-n1cc(-c2ccnc(NCc3c(C)n[nH]c3C)n2)cn1` reads 3 µM.
`Fc1ccccc1-n1cc(-c2ccnc(NCc3ccncc3)n2)cn1`: the result with HT-29 [2], in the assay on HT-29 [3] and with HT-29 [5] was Active. For the same compound, the inhibition result in assay [4] and in assay [6] was “Active” each time. The compound also gave an IC50 in assay [1] of 4 µM.
For the compound `CCNc1nccc(-c2cnn(-c3ccccc3F)c2)n1`, in assay [1], it took 3 µM to reach half-maximal inhibition (IC50).
